The source of these data is paper PMC12818745 (ACS Chemical Neuroscience, 2025).

Read-outs that look alike come from different tables or passages of the source.

For data set [1], the target named is eeAChE (Electrophorus electricus AChE) (Electrophorus electricus, UniProt O42275). Put plainly: Cholinesterase inhibition assay (modified Ellman's method), eeAChE. Type of data set: biochemical. The settings on record: for SI eeAChE: ratio eqBChE IC50/eeAChE IC50. In short, it runs like this:
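Enzymes at 0.025 U/mL in phosphate buffer pH 7, preincubated 5 min at 37 °C with compound (DMSO ≤0.2%). Reaction started with ATChI or BTChI plus DTNB, absorbance at 415 nm read every 2.5 min over 7.5 min. Triplicate runs.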

A short description of a further data set: in vitro. The settings on record: for Prediction (penetration into the CNS): class from PAMPA-BBB P e; for Papp at 2.5 h: pig, PAMPA, pH 7.4. On the procedure:
To assess BBB permeability, a parallel artificial membrane permeability assay (PAMPA)-BBB was performed, which predicts passive BBB permeability using a brain lipid porcine membrane.
The prediction of the brain penetration was evaluated using a PAMPA-BBB. […] Next, 100 μL of these stock solutions were added to a solution of 1400 μL of EtOH and 3500 μL of PBS at pH 7.4, to reach 30% of EtOH concentration in the experiment. These solutions were filtered, using Filter PDVF membrane units (diameter 30 mm, pore size 0.45 μm, from Symta). After this, the acceptor 96-well microplate (Multiscreen, catalogue no. MAMCS9610, from Millipore) was filled with 180 μL of PBS/EtOH (70/30). […] After 5 min, 180 μL of each compound solution was added. 1–2 mg of each selected compound was dissolved in 1500 μL of EtOH and 3500 μL of PBS at pH 7.4, filtered, and then added to the donor 96-well plate to determine their ability to cross the brain barrier. After this, the donor plate was carefully put on the acceptor plate to form a “sandwich” and incubated for 2.5 h at 25 °C. During this period, the compounds diffused from the donor plate through the brain lipid membrane into the acceptor plate. Afterward, the donor plate was removed. A 96-well plate UV reader (Thermoscientific, Multiskan spectrum) was used to determine the concentration of compounds and commercial drugs in the acceptor and donor wells. Every sample was analyzed at three to five wavelengths, in three wells, and in two independent runs. […] Ten quality control compounds (previously mentioned) of known BBB permeability were included in each experiment to validate the analysis set.

The next data set concerns the target T1, P-glycoprotein (P-gp) (Homo sapiens, UniProt P08183).
T1 construct: endogenous in cells; host or cells: hMEC/D3 cells
The data set is described as follows: Calcein-AM-assay in hMEC/D3 cells. The class given is cell-based. The settings on record: 1, 10, 50 and 100 μM. The procedure: To complement this approach and better understand whether these compounds may be substrates of such transporters, we next employed the calcein-AM-assay. This assay is particularly useful for assessing P-glycoprotein (P-gp), a major efflux transporter at the BBB that actively limits drug accumulation in the brain. To investigate potential interactions with P-gp, compounds 10, 11q-s were tested at concentrations of 1 μM, 10 μM, 50 μM and 100 μM, using the calcein-AM-assay in hMEC/D3 cells (Figure ). […] Therefore, these compounds are not expected to be P-gp substrates and may have favorable capacity to cross the BBB via passive diffusion, making them promising candidates for CNS drug development. […].
For all compounds tested, stock solutions were prepared in DMSO. Dilutions were then made with Krebs-Ringer buffer (KRB). […] Fluorescence was measured using a Tecan Infinite 200 Pro plate reader with λ excitation = 485 nm and λ emission = 535 nm. Each test compound was measured with n = 3, control and background were measured with n = 3. All fluorescence values were corrected by subtracting the background fluorescence. The increase in cellular fluorescence caused by a test compound was referred to the fluorescence of the control. […]

eeAChE (Electrophorus electricus AChE), sequence (O42275 24-633): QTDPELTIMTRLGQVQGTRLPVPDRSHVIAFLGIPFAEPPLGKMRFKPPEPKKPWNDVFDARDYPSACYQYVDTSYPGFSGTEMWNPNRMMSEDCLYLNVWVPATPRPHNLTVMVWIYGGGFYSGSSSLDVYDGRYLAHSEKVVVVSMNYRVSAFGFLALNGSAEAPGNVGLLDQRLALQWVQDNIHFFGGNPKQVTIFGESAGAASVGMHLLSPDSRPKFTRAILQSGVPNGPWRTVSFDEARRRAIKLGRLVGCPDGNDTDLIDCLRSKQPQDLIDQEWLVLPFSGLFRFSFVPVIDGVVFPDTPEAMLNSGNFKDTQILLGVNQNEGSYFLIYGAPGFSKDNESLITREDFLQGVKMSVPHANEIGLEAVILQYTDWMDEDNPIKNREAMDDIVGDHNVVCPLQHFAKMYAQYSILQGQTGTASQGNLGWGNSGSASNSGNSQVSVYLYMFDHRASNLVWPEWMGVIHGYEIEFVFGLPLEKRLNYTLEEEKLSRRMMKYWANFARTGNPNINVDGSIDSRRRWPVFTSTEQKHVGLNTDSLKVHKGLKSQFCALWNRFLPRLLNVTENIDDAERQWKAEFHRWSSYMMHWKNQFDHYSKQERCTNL
T1 sequence (P08183 whole entry): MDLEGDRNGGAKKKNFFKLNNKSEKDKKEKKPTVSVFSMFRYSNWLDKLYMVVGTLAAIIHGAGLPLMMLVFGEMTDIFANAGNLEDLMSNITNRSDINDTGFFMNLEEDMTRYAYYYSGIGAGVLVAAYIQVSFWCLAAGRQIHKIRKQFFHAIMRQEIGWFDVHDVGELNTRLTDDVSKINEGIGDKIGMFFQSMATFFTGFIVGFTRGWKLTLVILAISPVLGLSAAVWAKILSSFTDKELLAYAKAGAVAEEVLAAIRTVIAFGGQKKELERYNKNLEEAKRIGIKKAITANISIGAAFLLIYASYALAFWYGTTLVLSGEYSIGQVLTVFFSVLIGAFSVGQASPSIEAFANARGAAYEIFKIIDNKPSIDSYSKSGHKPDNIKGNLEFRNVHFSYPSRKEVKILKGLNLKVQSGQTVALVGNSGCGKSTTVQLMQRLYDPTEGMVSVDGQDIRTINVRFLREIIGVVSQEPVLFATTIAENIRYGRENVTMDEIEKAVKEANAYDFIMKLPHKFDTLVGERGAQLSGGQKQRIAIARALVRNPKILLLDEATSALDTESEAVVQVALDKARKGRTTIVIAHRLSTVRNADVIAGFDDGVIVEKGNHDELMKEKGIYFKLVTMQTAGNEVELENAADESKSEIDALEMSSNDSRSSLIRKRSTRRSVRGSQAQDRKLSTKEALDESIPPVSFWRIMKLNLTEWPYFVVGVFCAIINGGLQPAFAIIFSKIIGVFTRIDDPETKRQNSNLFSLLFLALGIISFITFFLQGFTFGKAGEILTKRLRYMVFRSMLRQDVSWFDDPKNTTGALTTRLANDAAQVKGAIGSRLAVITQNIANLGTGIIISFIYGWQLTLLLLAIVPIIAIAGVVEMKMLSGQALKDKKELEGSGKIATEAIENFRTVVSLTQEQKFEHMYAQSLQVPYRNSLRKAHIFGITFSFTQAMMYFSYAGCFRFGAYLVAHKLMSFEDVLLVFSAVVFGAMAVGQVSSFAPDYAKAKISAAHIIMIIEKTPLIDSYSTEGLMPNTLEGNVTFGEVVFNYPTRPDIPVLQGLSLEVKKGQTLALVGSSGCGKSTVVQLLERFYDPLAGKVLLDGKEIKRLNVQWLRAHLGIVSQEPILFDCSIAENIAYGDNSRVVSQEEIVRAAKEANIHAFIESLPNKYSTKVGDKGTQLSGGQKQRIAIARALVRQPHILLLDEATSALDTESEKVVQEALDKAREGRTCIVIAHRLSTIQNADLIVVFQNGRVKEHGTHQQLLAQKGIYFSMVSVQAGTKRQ

Usually IC50 stands for the concentration that inhibits the measured activity by half. A word on the Papp: it is the rate of passage across a membrane or cell layer, normalised by area and donor concentration. Higher therefore signals fast passage. Turning to `COc1ccc2c(=O)c3cc4c(cc3oc2c1)-c1cc(Cl)ccc1OC4` [Compound 11r, 2-Chloro-11-methoxy-6H,8H-chromeno[3,4-b]xanthen-8-one], in data set [1], the IC50 was 2.1 ± 0.9 µM and the “SI eeAChE” value came to 3.00. Further, in “in vitro”, the “Prediction (penetration into the CNS)” value was “CNS+ (High BBB permeation predicted (CNS+) P e > 3.93)” and the Papp at 2.5 h was found to be 7.12 ± 0.89 ×10⁻⁶ cm/s. In addition, the “Interaction with P-gp (intracellular calcein fluorescence)” value at P-glycoprotein (P-gp) is on record as “unlikely to be actively effluxed from the brain”.

As to `C#CCN(CC#C)c1ccccc1/C=C/c1cc(=O)c2ccccc2o1` [Compound 10, (E)-2-{2-[Di(prop-2-yn-1-yl)amino]styryl}-4H-chromen-4-one], the IC50 in data set [1] (mean ± SEM, n = 3, n.a = nonactive, IC50 determined only if inhibition higher than 50% at 20 μM) is 8.7 ± 0.5 µM. For the same compound, the “SI eeAChE” value in data set [1] amounted to 0.68. In the data set “in vitro”, the “Prediction (penetration into the CNS)” value was “CNS+ (High BBB permeation predicted (CNS+) P e > 3.93)” and the Papp at 2.5 h came out at 11.6 ± 3.39 ×10⁻⁶ cm/s. Further, the “Interaction with P-gp (intracellular calcein fluorescence)” value on P-glycoprotein (P-gp) is listed as “clear inhibitory effect on P-gp activity”.
